Results taken from the NIST ThermoML archive (doi:10.1021/je900048r).

Assay: xn = mol fraction of the nth substance listed
Settings: Liquid, Other PVT measurement

CCCCn1cc[n+](C)c1.F[B-](F)(F)F [1-butyl-3-methylimidazolium tetrafluoroborate] + CC#N
mass density [kg/m3]
Settings	x1 = 0.1	x1 = 0.2	x1 = 0.3	x1 = 0.4	x1 = 0.5	x1 = 0.6	x1 = 0.6999	x1 = 0.7998	x1 = 0.8993	x1 = 1
313.15 K, 200 kPa	893	980	1040	1077	1105	1127	1146	1161	1175	1185
313.15 K, 600 kPa	894	981	1041	1078	1106	1127	1147	1162	1175	1186
313.15 K, 1000 kPa	895	982	1041	1078	1106	1128	1147	1162	1175	1186
313.15 K, 1400 kPa	895	982	1041	1079	1106	1128	1147	1162	1175	1186
313.15 K, 1800 kPa	895	983	1041	1079	1106	1128	1147	1163	1176	1187
313.15 K, 2000 kPa	896	983	1042	1079	1107	1129	1148	1163	1176	1187
353.15 K, 200 kPa	857	947	1008	1047	1076	1098	1118	1134	1148	1159
353.15 K, 600 kPa	858	948	1009	1047	1076	1099	1119	1134	1148	1160
353.15 K, 1000 kPa	858	948	1009	1048	1077	1099	1119	1134	1148	1160
353.15 K, 1400 kPa	858	948	1010	1048	1077	1100	1119	1134	1149	1160
353.15 K, 1800 kPa	859	949	1010	1049	1077	1100	1120	1134	1149	1161
353.15 K, 2000 kPa	859	949	1010	1049	1078	1100	1120	1135	1149	1161
393.15 K, 600 kPa	820	914	978	1018	1048	1072	1092	1108	1123	1135
393.15 K, 1000 kPa	821	915	978	1018	1048	1072	1092	1108	1123	1135
393.15 K, 1400 kPa	821	915	979	1019	1048	1073	1092	1108	1123	1135
393.15 K, 1800 kPa	822	915	979	1019	1049	1073	1093	1108	1123	1136
393.15 K, 2000 kPa	822	916	979	1019	1049	1073	1093	1108	1124	1136
433.15 K, 1000 kPa	781	881	947	989	1021	1045	1066	1082	1098	1112
433.15 K, 1400 kPa	782	882	948	990	1021	1045	1066	1082	1098	1112
433.15 K, 1800 kPa	783	882	948	990	1021	1046	1067	1083	1098	1113
433.15 K, 2000 kPa	783	882	949	990	1021	1046	1067	1083	1099	1113
473.15 K, 1800 kPa	741	847	917	960	993	1018	1040	1057	1072	1086
473.15 K, 2000 kPa	742	848	917	960	993	1019	1041	1057	1073	1087
